# Experimental data: EP1247803A2, “Indolinone compounds suitable for modulation of protein kinases” (Sugen, Inc., priority 1996, dated 1998)
# Legend:
# [1] = tested on: MET; test: MET biochemical kinase assay; parameters: species or system human; concentration or dose not given beside the values
# Summary of the method: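 Lysate-derived MET, or chimeric receptors, is immobilised on plates through an antibody to the human MET cytoplasmic region. Compounds are added along with kinase buffer supplying ATP and divalent metal ions, and receptor autophosphorylation is quantified by anti-phosphotyrosine ELISA.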
# [2] = target: T1, EGFR (Homo sapiens, UniProt P00533); test: EGFR ELISA assay (in vitro kinase activity, EGFR captured from A431 cell lysate); format: biochemical; parameters: concentration or dose not given beside the values
# T1 construct: Add 7 ug A431 cell lysate per well (EGFR source); endogenous in cells; host or cells: A431
# Summary of the method: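 Receptor autophosphorylation was read by ELISA: anti-phosphotyrosine serum and an HRP-linked secondary with ABTS substrate, absorbance at 410 nm (reference 630 nm). The reaction ran 5 min with 3 µM ATP and 5 mM MnCl2 and was quenched by 20 mM EDTA. Compounds were first incubated 30 min with antibody-captured EGFR from A431 cell lysate.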
# T1 sequence (P00533 25-1210): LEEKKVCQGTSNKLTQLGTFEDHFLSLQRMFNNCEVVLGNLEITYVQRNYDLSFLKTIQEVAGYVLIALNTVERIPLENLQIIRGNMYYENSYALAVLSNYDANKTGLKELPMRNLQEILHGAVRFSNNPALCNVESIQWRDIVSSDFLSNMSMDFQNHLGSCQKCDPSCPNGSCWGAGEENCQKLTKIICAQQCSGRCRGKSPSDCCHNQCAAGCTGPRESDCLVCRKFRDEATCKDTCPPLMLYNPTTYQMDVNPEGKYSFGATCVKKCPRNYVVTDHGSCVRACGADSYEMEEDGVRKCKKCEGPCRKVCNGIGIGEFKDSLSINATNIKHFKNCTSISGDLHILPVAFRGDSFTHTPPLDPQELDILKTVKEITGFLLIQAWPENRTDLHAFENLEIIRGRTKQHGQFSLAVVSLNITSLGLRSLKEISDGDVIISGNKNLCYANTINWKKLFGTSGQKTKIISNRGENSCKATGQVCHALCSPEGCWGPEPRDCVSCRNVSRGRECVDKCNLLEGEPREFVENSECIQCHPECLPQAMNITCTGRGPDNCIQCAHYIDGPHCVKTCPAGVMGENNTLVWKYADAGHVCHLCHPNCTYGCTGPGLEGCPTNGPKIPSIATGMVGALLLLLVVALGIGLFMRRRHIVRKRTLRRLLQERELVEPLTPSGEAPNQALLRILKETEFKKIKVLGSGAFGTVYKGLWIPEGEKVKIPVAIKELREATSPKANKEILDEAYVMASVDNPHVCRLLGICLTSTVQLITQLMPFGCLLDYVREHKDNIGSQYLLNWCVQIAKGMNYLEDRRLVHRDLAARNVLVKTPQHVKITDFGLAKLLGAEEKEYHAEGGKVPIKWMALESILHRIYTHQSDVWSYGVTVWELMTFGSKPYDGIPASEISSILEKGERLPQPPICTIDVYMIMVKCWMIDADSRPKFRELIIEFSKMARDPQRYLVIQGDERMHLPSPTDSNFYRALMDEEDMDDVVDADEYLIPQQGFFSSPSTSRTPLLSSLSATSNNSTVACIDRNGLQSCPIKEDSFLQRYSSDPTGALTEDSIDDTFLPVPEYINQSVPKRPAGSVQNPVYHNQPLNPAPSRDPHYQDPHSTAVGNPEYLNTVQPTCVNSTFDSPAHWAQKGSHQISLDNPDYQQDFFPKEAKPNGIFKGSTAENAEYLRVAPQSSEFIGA
Structure (SMILES),Met Kinase % Inhibition [1] [%],Biochem EGFR %Inhibition [2] [%]
Cc1c(Br)ccc2c1C(=Cc1c[nH]c3ccccc13)C(=O)N2 [10717/C06],44.1,-49.7
CCOc1cc(C=C2C(=O)Nc3ccc(CCCl)cc32)ccc1O [10720/G09],49.5,-19.7
O=C1Nc2ccc(S(=O)(=O)Nc3ccc(C(F)(F)F)cc3)cc2C1=Cc1ncc[nH]1 [10720/E11],-10.4,-65.5
O=C1Nc2ccc(S(=O)(=O)N3CCOCC3)cc2C1=Cc1ncc[nH]1 [10720/F11],1.6,-61.1
Cc1c(Br)ccc2c1C(=Cc1nc3ccccc3n1C)C(=O)N2 [10721/C02],59.2,68.3
O=C1Nc2c(Br)cc(Br)cc2C1=Cc1cc2c([nH]1)CCCC2 [10721/A05],52.9,41.4
CNS(=O)(=O)c1ccc2c(c1)C(=Cc1cc([N+](=O)[O-])cc(CCl)c1O)C(=O)N2 [10721/D06],9.0,44.5
CNS(=O)(=O)c1ccc2c(c1)C(=Cc1ccc(Cl)s1)C(=O)N2 [10721/D07],-6.8,23.0
COc1cccc(O)c1C=C1C(=O)Nc2ccc(Br)c(C)c21 [10717/C10],22.8,17.5
CSc1ccc(C=C2C(=O)Nc3ccc(CCCl)cc32)s1 [10720/G07],12.9,-8.0
CNS(=O)(=O)c1ccc2c(c1)C(=Cc1c(C)cc(O)cc1O)C(=O)N2 [10720/D08],42.1,-13.3
O=C1Nc2ccc(S(=O)(=O)Nc3ccc(C(F)(F)F)cc3)cc2C1=Cc1ccccc1O [10720/E05],55.4,40.7
O=C1Nc2ccc(CCCl)cc2C1=Cc1c(F)cc(F)cc1F [10720/G02],20.1,-13.1
Cc1cc(C=C2C(=O)Nc3ccc(Br)c(C)c32)sc1C [10721/C04],88.7,77.7
O=C1Nc2ccc(S(=O)(=O)Nc3ccc(C(F)(F)F)cc3)cc2C1=Cc1c(F)cc(F)cc1F [10720/E02],18.0,25.2
O=C1Nc2ccc(CCCl)cc2C1=Cc1ncc[nH]1 [10720/G11],36.2,-56.7
Cc1[nH]c(C=C2C(=O)Nc3ccc(Br)c(C)c32)c(Br)c1Br [10717/C11],71.8,67.3
CNS(=O)(=O)c1ccc2c(c1)C(=Cc1[nH]c(C)cc1C)C(=O)N2 [10721/D08],45.3,31.7
CNS(=O)(=O)c1ccc2c(c1)C(=Cc1cc(C)c(C)s1)C(=O)N2 [10721/D04],35.3,5.0
Cc1ccc(C=C2C(=O)Nc3ccc(Br)c(C)c32)s1 [10717/C07],16.5,28.7
